Measurements: patent publication US8629173B2, “Solid forms comprising (+)-2-[1-(3-ethoxy-4-methoxyphenyl)-2-methylsulfonylethyl]-4-acetylaminoisoindoline-1,3-dione, compositions thereof, and uses thereof” (Celgene Corporation, priority 2002, dated 2014)
In brackets after ≈: the same amount, converted by molar mass.

Legend:
[1] = biological target: PDE3 from human platelets (Homo sapiens, UniProt Q14432); experiment: PDE3 enzyme assay; type: biochemical
[2] = tested on: LPS-induced neutrophilia in the lungs of conscious ferrets; experiment: LPS-induced lung neutrophilia ferret model; type: in vivo; settings: Mustela putorius, po, read-out: Inhibition of LPS-induced neutrophilia (ED50)
conscious ferret = experiment: Emesis and behavioral changes in conscious ferret; type: in vivo
Procedure: The conscious ferret model has been used to investigate anti-inflammatory, emetic and behavioral effects of PDE4 inhibitors when administered by the oral (p.o.) route. From these experiments, a therapeutic index (TI) for each PDE4 inhibitor may be determined. The TI has been calculated by dividing the threshold dose for causing emetic episodes and behavioral changes by the anti-inflammatory dose (dose that causes 50% inhibition of the LPS-induced neutrophilia).
PDE4 inhibitors were administered orally (p.o.), at doses initially of […], but subsequently up to 30 mg/kg in order to establish whether the TI was 10 or higher, and/or at lower doses to establish the minimum dose to cause 50% inhibition of neutrophilia. Ferrets were fasted overnight but allowed free access to water. The animals were orally dosed with vehicle or PDE4 inhibitor using a 15 cm dosing needle that was passed down the back of the throat into the oesophagus. After dosing, the animals were returned to holding cages fitted with Perspex doors to allow observation, and given free access to water. After dosing, the animals were constantly observed and any emesis or behavioral changes were recorded. The animals were allowed access to food 60 to 90 minutes after p.o. dosing.
Thirty minutes after p.o. dosing with compound or vehicle control, the ferrets were placed into sealed Perspex containers and exposed to an aerosol of LPS (100 μg/ml) for 10 minutes. Aerosols of LPS were generated by a nebulizer (DeVilbiss, USA) and this was directed into the Perspex exposure chamber. Following a 10 minute exposure period, the animals were returned to the holding cages and allowed free access to water, and at a later stage, food. Observation continued for a period of at least 2.5 hours post p.o. dosing and emetic episodes and behavioral changes were recorded.
2. Emetic episodes—the number of vomits and retches were counted.
3. Behavioral changes—the following behavioral effects were noted: salivation, panting, mouth clawing, flattened posture, ataxia, arched back and backward walking Any behavioral changes were semi-quantified by applying a severity rating (mild, moderate or severe).
4. The TI was calculated as the highest dose found to not cause emetic episodes divided by the lowest dose found to inhibit pulmonary neutrophilia by 50% or more.
Numbers in parentheses refer to the number of animals that responded. The numbers of animals in each group range from 4 to 22.
From these experiments, a therapeutic index (TI) was determined for each compound by dividing the threshold dose for inducing emetic episodes by the ED50 value for inhibiting the pulmonary neutrophilia.

[3] = pH 7.4
physchem = settings: pH 7.4, aqueous buffer, thermodynamic from solid

Sequence of PDE3 from human platelets (Q14432 whole entry): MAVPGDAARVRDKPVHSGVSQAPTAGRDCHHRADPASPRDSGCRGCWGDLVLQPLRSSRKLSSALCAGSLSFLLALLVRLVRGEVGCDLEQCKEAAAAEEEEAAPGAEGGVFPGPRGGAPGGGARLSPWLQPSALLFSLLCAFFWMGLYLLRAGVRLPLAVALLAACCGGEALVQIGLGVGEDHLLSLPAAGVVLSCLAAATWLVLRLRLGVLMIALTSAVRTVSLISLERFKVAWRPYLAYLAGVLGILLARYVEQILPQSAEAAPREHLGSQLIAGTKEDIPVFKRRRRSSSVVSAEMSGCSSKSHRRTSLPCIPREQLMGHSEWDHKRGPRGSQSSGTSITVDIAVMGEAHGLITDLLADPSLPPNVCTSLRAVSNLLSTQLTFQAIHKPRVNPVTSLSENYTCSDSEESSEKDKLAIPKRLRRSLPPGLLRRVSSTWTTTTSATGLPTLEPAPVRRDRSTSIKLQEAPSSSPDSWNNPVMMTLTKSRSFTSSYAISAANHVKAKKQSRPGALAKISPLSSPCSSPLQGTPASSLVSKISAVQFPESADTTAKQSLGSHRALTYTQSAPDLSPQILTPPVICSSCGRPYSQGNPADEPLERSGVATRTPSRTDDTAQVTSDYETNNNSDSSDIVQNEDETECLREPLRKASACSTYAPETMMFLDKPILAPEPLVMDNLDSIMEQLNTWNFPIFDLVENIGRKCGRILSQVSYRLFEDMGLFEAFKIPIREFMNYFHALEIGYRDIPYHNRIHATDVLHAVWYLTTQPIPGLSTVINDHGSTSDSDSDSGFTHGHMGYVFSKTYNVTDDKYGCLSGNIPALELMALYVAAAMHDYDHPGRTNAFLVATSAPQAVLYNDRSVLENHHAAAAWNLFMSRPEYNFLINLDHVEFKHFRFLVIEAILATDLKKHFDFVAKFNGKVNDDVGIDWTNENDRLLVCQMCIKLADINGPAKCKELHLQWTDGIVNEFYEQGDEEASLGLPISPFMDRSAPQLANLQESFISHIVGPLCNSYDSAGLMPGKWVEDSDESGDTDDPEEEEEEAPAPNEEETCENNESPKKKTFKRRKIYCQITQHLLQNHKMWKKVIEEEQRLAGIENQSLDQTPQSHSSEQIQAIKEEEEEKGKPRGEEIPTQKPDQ

SMILES: CCOc1cc(C(CS(C)(=O)=O)N2C(=O)c3cccc(NC(C)=O)c3C2=O)ccc1OC (single isomer, unassigned; (+)) [Compound A, (+)-2-[1-(3-ethoxy-4-methoxyphenyl)-2-methylsulfonylethyl]-4-acetylaminoisoindoline-1,3-dione]
- PDE Specificity Ratio PDE4/PDE3 ([1]; from Table 1 data): >1200 fold
- inhibition at 10 µM ([1]; read-out: PDE3 (% inhib at 10 μM)): 20%
- ED50 [2]: 0.8 mg/kg
- Threshold emetic dose (conscious ferret; conscious ferret, p.o.): 10 mg/kg
- Ataxia, severity (conscious ferret; ferret, 0.1 mg/kg p.o.): None
- Backward walking, number of animals that responded (conscious ferret; ferret, 0.1 mg/kg p.o.): (3/5)
- Backward walking, severity (conscious ferret; ferret, 0.1 mg/kg p.o.): Mild
- Flattened posture, number of animals that responded (conscious ferret; ferret, 0.1 mg/kg p.o.): (2/5)
- Flattened posture, severity (conscious ferret; ferret, 0.1 mg/kg p.o.): Mild
- Lip licking, number of animals that responded (conscious ferret; ferret, 0.1 mg/kg p.o.): (4/5)
- Lip licking, severity (conscious ferret; ferret, 0.1 mg/kg p.o.): Mild
- Mouth clawing, severity (conscious ferret; ferret, 0.1 mg/kg p.o.): None
- Panting, severity (conscious ferret; ferret, 0.1 mg/kg p.o.): None
- Retches, severity (conscious ferret; ferret, 0.1 mg/kg p.o.): None
- Salivation, severity (conscious ferret; ferret, 0.1 mg/kg p.o.): None
- Vomits, severity (conscious ferret; ferret, 0.1 mg/kg p.o.): None
- Ataxia, severity (conscious ferret; ferret, 0.3 mg/kg p.o.): None
- Backward walking, number of animals that responded (conscious ferret; ferret, 0.3 mg/kg p.o.): (4/6)
- Backward walking, severity (conscious ferret; ferret, 0.3 mg/kg p.o.): Mild
- Flattened posture, number of animals that responded (conscious ferret; ferret, 0.3 mg/kg p.o.): (2/6)
- Flattened posture, severity (conscious ferret; ferret, 0.3 mg/kg p.o.): Mild
- Lip licking, number of animals that responded (conscious ferret; ferret, 0.3 mg/kg p.o.): (3/6)
- Lip licking, severity (conscious ferret; ferret, 0.3 mg/kg p.o.): Mild
- Mouth clawing, severity (conscious ferret; ferret, 0.3 mg/kg p.o.): None
- Panting, severity (conscious ferret; ferret, 0.3 mg/kg p.o.): None
- Retches, severity (conscious ferret; ferret, 0.3 mg/kg p.o.): None
- Salivation, severity (conscious ferret; ferret, 0.3 mg/kg p.o.): None
- Vomits, severity (conscious ferret; ferret, 0.3 mg/kg p.o.): None
- emetic episodes at anti-inflammatory dose (conscious ferret; ferret, 1 mg/kg): no emetic episodes
- Ataxia, severity (conscious ferret; ferret, 1.0 mg/kg p.o.): None
- Backward walking, number of animals that responded (conscious ferret; ferret, 1.0 mg/kg p.o.): (4/6)
- Backward walking, severity (conscious ferret; ferret, 1.0 mg/kg p.o.): Mild
- Flattened posture, number of animals that responded (conscious ferret; ferret, 1.0 mg/kg p.o.): (2/6)
- Flattened posture, severity (conscious ferret; ferret, 1.0 mg/kg p.o.): Mild
- Lip licking, number of animals that responded (conscious ferret; ferret, 1.0 mg/kg p.o.): (6/6)
- Lip licking, severity (conscious ferret; ferret, 1.0 mg/kg p.o.): Mild
- Mouth clawing, severity (conscious ferret; ferret, 1.0 mg/kg p.o.): None
- Panting, severity (conscious ferret; ferret, 1.0 mg/kg p.o.): None
- Retches, severity (conscious ferret; ferret, 1.0 mg/kg p.o.): None
- Salivation, severity (conscious ferret; ferret, 1.0 mg/kg p.o.): None
- Vomits, severity (conscious ferret; ferret, 1.0 mg/kg p.o.): None
- Ataxia, severity (conscious ferret; ferret, 3.0 mg/kg p.o.): None
- Backward walking, number of animals that responded (conscious ferret; ferret, 3.0 mg/kg p.o.): (5/8)
- Backward walking, severity (conscious ferret; ferret, 3.0 mg/kg p.o.): Moderate
- Flattened posture, number of animals that responded (conscious ferret; ferret, 3.0 mg/kg p.o.): (7/8)
- Flattened posture, severity (conscious ferret; ferret, 3.0 mg/kg p.o.): Marked
- Lip licking, number of animals that responded (conscious ferret; ferret, 3.0 mg/kg p.o.): (2/8)
- Lip licking, severity (conscious ferret; ferret, 3.0 mg/kg p.o.): Mild
- Mouth clawing, number of animals that responded (conscious ferret; ferret, 3.0 mg/kg p.o.): (1/8)
- Mouth clawing, severity (conscious ferret; ferret, 3.0 mg/kg p.o.): Mild
- Panting, severity (conscious ferret; ferret, 3.0 mg/kg p.o.): None
- Retches, severity (conscious ferret; ferret, 3.0 mg/kg p.o.): None
- Salivation, severity (conscious ferret; ferret, 3.0 mg/kg p.o.): None
- Vomits, severity (conscious ferret; ferret, 3.0 mg/kg p.o.): None
- Ataxia, severity (conscious ferret; ferret, 10 mg/kg p.o.): None
- Backward walking, number of animals that responded (conscious ferret; ferret, 10 mg/kg p.o.): (6/6)
- Backward walking, severity (conscious ferret; ferret, 10 mg/kg p.o.): Marked
- Flattened posture, number of animals that responded (conscious ferret; ferret, 10 mg/kg p.o.): (6/6)
- Flattened posture, severity (conscious ferret; ferret, 10 mg/kg p.o.): Marked
- Lip licking, number of animals that responded (conscious ferret; ferret, 10 mg/kg p.o.): (5/6)
- Lip licking, severity (conscious ferret; ferret, 10 mg/kg p.o.): Moderate
- Mouth clawing, number of animals that responded (conscious ferret; ferret, 10 mg/kg p.o.): (1/6)
- Mouth clawing, severity (conscious ferret; ferret, 10 mg/kg p.o.): Mild
- Panting, severity (conscious ferret; ferret, 10 mg/kg p.o.): None
- Retches, severity (conscious ferret; ferret, 10 mg/kg p.o.): Mild
- Salivation, number of animals that responded (conscious ferret; ferret, 10 mg/kg p.o.): 1/6
- Salivation, severity (conscious ferret; ferret, 10 mg/kg p.o.): Mild
- Vomits, severity (conscious ferret; ferret, 10 mg/kg p.o.): None
- emesis (conscious ferret; ferret, 10 mg/kg p.o.): no frank emesis
- salivation and behavioral changes, score (conscious ferret; ferret, 10 mg/kg p.o.): mild or moderate
- Retches, number of animals that responded (conscious ferret; ferret, 10 mg/kg p.o., 10 mg/kg): 2/6 and (2/6)
- Ataxia, number of animals that responded (conscious ferret; ferret, 30 mg/kg p.o.): (3/4)
- Ataxia, severity (conscious ferret; ferret, 30 mg/kg p.o.): Mild
- Backward walking, number of animals that responded (conscious ferret; ferret, 30 mg/kg p.o.): (2/4)
- Backward walking, severity (conscious ferret; ferret, 30 mg/kg p.o.): Mild
- Flattened posture, number of animals that responded (conscious ferret; ferret, 30 mg/kg p.o.): (4/4)
- Flattened posture, severity (conscious ferret; ferret, 30 mg/kg p.o.): Marked
- Lip licking, number of animals that responded (conscious ferret; ferret, 30 mg/kg p.o.): (4/4)
- Lip licking, severity (conscious ferret; ferret, 30 mg/kg p.o.): Moderate
- Mouth clawing, number of animals that responded (conscious ferret; ferret, 30 mg/kg p.o.): (4/4)
- Mouth clawing, severity (conscious ferret; ferret, 30 mg/kg p.o.): Marked
- Panting, number of animals that responded (conscious ferret; ferret, 30 mg/kg p.o.): (1/4)
- Panting, severity (conscious ferret; ferret, 30 mg/kg p.o.): Mild
- Retches, number of animals that responded (conscious ferret; ferret, 30 mg/kg p.o.): (3/4)
- Retches, severity (conscious ferret; ferret, 30 mg/kg p.o.): Marked
- Salivation, number of animals that responded (conscious ferret; ferret, 30 mg/kg p.o.): (3/4)
- Salivation, severity (conscious ferret; ferret, 30 mg/kg p.o.): Moderate
- Vomits, number of animals that responded (conscious ferret; ferret, 30 mg/kg p.o.): (3/4)
- Vomits, severity (conscious ferret; ferret, 30 mg/kg p.o.): Moderate
- behavioral changes (conscious ferret; ferret, 30 mg/kg p.o.): pronounced
- emesis, animals affected (conscious ferret; ferret, 30 mg/kg p.o.): 3/4
- emesis, severity (conscious ferret; ferret, 30 mg/kg p.o.): moderate to marked
- behavioral changes (flattened posture, lip licking, backward walking), classification (conscious ferret; ferret, 0.1-3 mg/kg p.o.): mild
- emetic episodes (retching and vomiting) (conscious ferret; ferret, 0.1-3 mg/kg p.o.): no emetic episodes
- Therapeutic index (conscious ferret; threshold emetic dose divided by ED50 for pulmonary neutrophilia, ferret): 12
- aqueous solubility relative to the racemic mixture [3]: 3.5 fold
- solubility (physchem): 12 µg/mL (≈ 26.1 µM)
